Results: patent publication US20210275581A1 (priority 2020, published 2021)

What was measured:
[1] = tested on: Salmonella enterica Serovar typhimurium LT2; settings: liquid culture, static growth, 37° C., 20 hours, 96 well microtiter plates
Experimental: (§1) Salmonella enterica Serovar typhimurium LT2, Staphylococcus aureus USA300 LAC, and Streptococcus mutans Clark (ATCC) were used for the experiment. […] S. enterica and S. aureus were cultured in Muller Hinton media (Sigma-Aldrich) and S. mutans was cultured in Reinforced Clostridial Media (Oxoid).
(§2) Single bacterial colonies were inoculated into 2 mL of medium in 10 mL capacity culture tubes. Inoculated cultures of S. aureus and S. enterica were grown aerobically at 37° C. with shaking at 200 rpm for 24 hours. S. mutans was cultured statically for 48 hours. […] MICs were determined in cultures grown in 96 well microtiter plates. 100 μL of the standardized culture was sub-cultured into wells containing 100 μL of medium containing antimicrobial compound. Control wells containing 200 μL of media only or media compound were used to standardize the data. The microtiter plates were aerobically incubated statically at 37° C. for 20 hours. Culture optical densities (A600) were determined using Biotek® EPOCH 2 microplate reader.
(§3) The ability of Zn and (CP)2ZnCl4 to inhibit the growth of bacterial pathogens was examined. The minimal inhibitory concentrations of Zn and (CP)2ZnCl4 were determined in liquid culture after static growth.

[2] = tested on: Streptococcus mutans Clark (ATCC); settings: for minimal inhibitory concentration S. mutans: liquid culture, static growth, 37° C., 20 hours, 96 well microtiter plates
Experimental: as §1, §2, §3

[3] = tested on: Staphylococcus aureus USA300 LAC; settings: liquid culture, static growth, 37° C., 20 hours, 96 well microtiter plates
Experimental: as §1, §2, §3

SMILES	minimal inhibitory concentration S. enterica [1] [µg/mL]	minimal inhibitory concentration S. mutans [2] [µg/mL]	antibacterial activity against S. mutans, compared to CPC ([2]; result in words, comparison with CPC)	MIC for Streptococcus mutans compared with zinc chloride or CPC ([2]; result in words, comparison with zinc chloride or CPC)	minimal inhibitory concentration S. aureus [3] [µg/mL]
[Cl-].[Cl-].[Zn+2] [ZnCl2, zinc chloride, reference compound]	~300	~65	–	–	–
CCCCCCCCCCCCCCCC[n+]1ccccc1.CCCCCCCCCCCCCCCC[n+]1ccccc1.[Cl][Zn-2]([Cl])([Cl])[Cl] [(CP)2ZnCl4, cetylpyridinium tetrachlorozincate]	60	6	slight improvement	lower than that of zinc chloride or CPC	6
